Experimental data taken from patent US12702691B2, “Extract of an herbal composition as antimicrobial and/or antibiofilm agent” (ALPHANOSOS S.A.S., priority 2016, dated 2026).

Experiments:
B-A21 = test: Planktonic growth with extract and antibiotic relative to growth without both (Example 14); format: cell-based
Description: (§1) Starting from the herbal composition, the corresponding water extracts (or processed samples) was prepared according to the previously described Method B using 2.06 g of the above herbal composition with 40 mL water with 100 g/L sucrose for water extraction and including the decantation step before filtration. In an independent water extract preparation without sucrose, it has been measured that 2.06 g/40 mL of herbal composition corresponds to 14.5 g/L as deduced from the weight of the lyophilized dry herbal extract.
(§2) In Example 14 we calculate the growth of the bacteria in presence of antibiotic and/or herbal mix relative to the growth in the absence of both antibiotic and herbal mix extract.

B-A17 = test: as above; format: cell-based
Description: as §1, §2

[1] = M[20C]-576 0 μg/mL, antibiotic 3.91 μg/mL
[2] = M[20C]-576 0 μg/mL, antibiotic 7.81 μg/mL
[3] = M[20C]-576 0 μg/mL, antibiotic 15.63 μg/mL
[4] = M[20C]-576 0 μg/mL, antibiotic 31.25 μg/mL
[5] = M[20C]-576 0 μg/mL, antibiotic 62.50 μg/mL
[6] = M[20C]-576 0 μg/mL, antibiotic 125 μg/mL
[7] = M[20C]-576 0 μg/mL, antibiotic 250 μg/mL
[8] = M[20C]-576 0 μg/mL, antibiotic 500 μg/mL
[9] = M[20C]-576 0 μg/mL, antibiotic 1000 μg/mL
[10] = M[20C]-576 0 μg/mL, antibiotic 2000 μg/mL
[11] = M[20C]-576 0 μg/mL, antibiotic 4000 μg/mL
[12] = M[20C]-576 90.6 μg/mL, antibiotic 3.91 μg/mL
[13] = M[20C]-576 90.6 μg/mL, antibiotic 7.81 μg/mL
[14] = M[20C]-576 90.6 μg/mL, antibiotic 15.63 μg/mL
[15] = M[20C]-576 90.6 μg/mL, antibiotic 31.25 μg/mL
[16] = M[20C]-576 90.6 μg/mL, antibiotic 62.50 μg/mL
[17] = M[20C]-576 90.6 μg/mL, antibiotic 125 μg/mL
[18] = M[20C]-576 90.6 μg/mL, antibiotic 250 μg/mL
[19] = M[20C]-576 90.6 μg/mL, antibiotic 500 μg/mL
[20] = M[20C]-576 90.6 μg/mL, antibiotic 1000 μg/mL
[21] = M[20C]-576 90.6 μg/mL, antibiotic 2000 μg/mL
[22] = M[20C]-576 90.6 μg/mL, antibiotic 4000 μg/mL
[23] = M[20C]-576 181.3 μg/mL, antibiotic 3.91 μg/mL
[24] = M[20C]-576 181.3 μg/mL, antibiotic 7.81 μg/mL
[25] = M[20C]-576 181.3 μg/mL, antibiotic 15.63 μg/mL
[26] = M[20C]-576 181.3 μg/mL, antibiotic 31.25 μg/mL
[27] = M[20C]-576 181.3 μg/mL, antibiotic 62.50 μg/mL
[28] = M[20C]-576 181.3 μg/mL, antibiotic 125 μg/mL
[29] = M[20C]-576 181.3 μg/mL, antibiotic 250 μg/mL
[30] = M[20C]-576 181.3 μg/mL, antibiotic 500 μg/mL
[31] = M[20C]-576 181.3 μg/mL, antibiotic 1000 μg/mL
[32] = M[20C]-576 181.3 μg/mL, antibiotic 2000 μg/mL
[33] = M[20C]-576 181.3 μg/mL, antibiotic 4000 μg/mL

SMILES: CN[C@H](CC(C)C)C(=O)N[C@H]1C(=O)N[C@@H](CC(N)=O)C(=O)N[C@H]2C(=O)N[C@H]3C(=O)N[C@H](C(=O)N[C@H](C(=O)O)c4cc(O)cc(O)c4-c4cc3ccc4O)[C@H](O)c3ccc(c(Cl)c3)Oc3cc2cc(c3O[C@@H]2O[C@H](CO)[C@@H](O)[C@H](O)[C@H]2O[C@H]2C[C@](C)(N)[C@H](O)[C@H](C)O2)Oc2ccc(cc2Cl)[C@H]1O [Vancomycin]
- planktonic growth relative to the growth in the absence of both extract and antibiotic (B-A21; [1]): 118%
- planktonic growth relative to the growth in the absence of both extract and antibiotic (B-A21; [2]): 117%
- planktonic growth relative to the growth in the absence of both extract and antibiotic (B-A21; [3]): 113%
- planktonic growth relative to the growth in the absence of both extract and antibiotic (B-A21; [4]): 117%
- planktonic growth relative to the growth in the absence of both extract and antibiotic (B-A21; [5]): 110%
- planktonic growth relative to the growth in the absence of both extract and antibiotic (B-A21; [6]): 102%
- planktonic growth relative to the growth in the absence of both extract and antibiotic (B-A21; [7]): 102%
- planktonic growth relative to the growth in the absence of both extract and antibiotic (B-A21; [8]): 102%
- planktonic growth relative to the growth in the absence of both extract and antibiotic (B-A21; [9]): 0%
- planktonic growth relative to the growth in the absence of both extract and antibiotic (B-A21; [10]): 0%
- planktonic growth relative to the growth in the absence of both extract and antibiotic (B-A21; [11]): 0%
- planktonic growth relative to the growth in the absence of both extract and antibiotic (B-A21; [12]): 102%
- planktonic growth relative to the growth in the absence of both extract and antibiotic (B-A21; [13]): 82%
- planktonic growth relative to the growth in the absence of both extract and antibiotic (B-A21; [14]): 88%
- planktonic growth relative to the growth in the absence of both extract and antibiotic (B-A21; [15]): 77%
- planktonic growth relative to the growth in the absence of both extract and antibiotic (B-A21; [16]): 76%
- planktonic growth relative to the growth in the absence of both extract and antibiotic (B-A21; [17]): 77%
- planktonic growth relative to the growth in the absence of both extract and antibiotic (B-A21; [18]): 74%
- planktonic growth relative to the growth in the absence of both extract and antibiotic (B-A21; [19]): 67%
- planktonic growth relative to the growth in the absence of both extract and antibiotic (B-A21; [20]): 0%
- planktonic growth relative to the growth in the absence of both extract and antibiotic (B-A21; [21]): 0%
- planktonic growth relative to the growth in the absence of both extract and antibiotic (B-A21; [22]): 0%
- planktonic growth relative to the growth in the absence of both extract and antibiotic (B-A21; [23]): 48%
- planktonic growth relative to the growth in the absence of both extract and antibiotic (B-A21; [24]): 63%
- planktonic growth relative to the growth in the absence of both extract and antibiotic (B-A21; [25]): 57%
- planktonic growth relative to the growth in the absence of both extract and antibiotic (B-A21; [26]): 60%
- planktonic growth relative to the growth in the absence of both extract and antibiotic (B-A21; [27]): 57%
- planktonic growth relative to the growth in the absence of both extract and antibiotic (B-A21; [28]): 41%
- planktonic growth relative to the growth in the absence of both extract and antibiotic (B-A21; [29]): 57%
- planktonic growth relative to the growth in the absence of both extract and antibiotic (B-A21; [30]): 32%
- planktonic growth relative to the growth in the absence of both extract and antibiotic (B-A21; [31]): −2%
- planktonic growth relative to the growth in the absence of both extract and antibiotic (B-A21; [32]): −3%
- planktonic growth relative to the growth in the absence of both extract and antibiotic (B-A21; [33]): 0%
- planktonic growth relative to the growth in the absence of both extract and antibiotic (B-A17; [1]): 135%
- planktonic growth relative to the growth in the absence of both extract and antibiotic (B-A17; [2]): 118%
- planktonic growth relative to the growth in the absence of both extract and antibiotic (B-A17; [3]): 114%
- planktonic growth relative to the growth in the absence of both extract and antibiotic (B-A17; [4]): 117%
- planktonic growth relative to the growth in the absence of both extract and antibiotic (B-A17; [5]): 115%
- planktonic growth relative to the growth in the absence of both extract and antibiotic (B-A17; [6]): 116%
- planktonic growth relative to the growth in the absence of both extract and antibiotic (B-A17; [7]): 118%
- planktonic growth relative to the growth in the absence of both extract and antibiotic (B-A17; [8]): 128%
- planktonic growth relative to the growth in the absence of both extract and antibiotic (B-A17; [9]): 117%
- planktonic growth relative to the growth in the absence of both extract and antibiotic (B-A17; [10]): 0%
- planktonic growth relative to the growth in the absence of both extract and antibiotic (B-A17; [11]): 0%
- planktonic growth relative to the growth in the absence of both extract and antibiotic (B-A17; [12]): 65%
- planktonic growth relative to the growth in the absence of both extract and antibiotic (B-A17; [13]): 66%
- planktonic growth relative to the growth in the absence of both extract and antibiotic (B-A17; [14]): 65%
- planktonic growth relative to the growth in the absence of both extract and antibiotic (B-A17; [15]): 74%
- planktonic growth relative to the growth in the absence of both extract and antibiotic (B-A17; [16]): 70%
- planktonic growth relative to the growth in the absence of both extract and antibiotic (B-A17; [17]): 67%
- planktonic growth relative to the growth in the absence of both extract and antibiotic (B-A17; [18]): 66%
- planktonic growth relative to the growth in the absence of both extract and antibiotic (B-A17; [19]): 63%
- planktonic growth relative to the growth in the absence of both extract and antibiotic (B-A17; [20]): 0%
- planktonic growth relative to the growth in the absence of both extract and antibiotic (B-A17; [21]): 0%
- planktonic growth relative to the growth in the absence of both extract and antibiotic (B-A17; [22]): 0%
- planktonic growth relative to the growth in the absence of both extract and antibiotic (B-A17; [23]): 40%
- planktonic growth relative to the growth in the absence of both extract and antibiotic (B-A17; [24]): 41%
- planktonic growth relative to the growth in the absence of both extract and antibiotic (B-A17; [25]): 53%
- planktonic growth relative to the growth in the absence of both extract and antibiotic (B-A17; [26]): 55%
- planktonic growth relative to the growth in the absence of both extract and antibiotic (B-A17; [27]): 55%
- planktonic growth relative to the growth in the absence of both extract and antibiotic (B-A17; [28]): 54%
- planktonic growth relative to the growth in the absence of both extract and antibiotic (B-A17; [29]): 46%
- planktonic growth relative to the growth in the absence of both extract and antibiotic (B-A17; [30]): 47%
- planktonic growth relative to the growth in the absence of both extract and antibiotic (B-A17; [31]): −3%
- planktonic growth relative to the growth in the absence of both extract and antibiotic (B-A17; [32]): −3%
- planktonic growth relative to the growth in the absence of both extract and antibiotic (B-A17; [33]): −2%
